Among the test systems are U251 CNS; HOP-62 NSCLC; M14 melanoma; LOX IMVI melanoma; RPMI-8226 leukemia; CCRF-CEM leukemia; SK-MEL-5 melanoma; SK-MEL-28 melanoma; SNB-75 CNS; EKVX NSCLC.
Holding throughout (test): inhibition of tumour cell growth, NCI panel, 48 h

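Values below derive from 48-hour exposures of cells grown in 96-well plates, with endpoints linearly interpolated between the two concentrations bracketing the appropriate inhibition level. GI50 marks 50% less growth. At the TGI there is no net growth.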 Some results are limits rather than exact numbers.

In the case of `O=C1C=CC2C3C(=O)N(c4ccccc4)C(=O)C3C1N2Cc1ccccc1` (centres undefined), the GI50 in the assay with U251 CNS is 2.29 µM; in the assay on M14 melanoma, 2.6 µM; in the assay with LOX IMVI melanoma it was 1.61 µM; in the assay with RPMI-8226 leukemia, 1.59 µM; with CCRF-CEM leukemia, 0.942 µM; with SK-MEL-5 melanoma, 3.57 µM. The GI50 with SK-MEL-28 melanoma was 3.02 µM; in the assay with SNB-75 CNS, 4.19 µM; in the assay with EKVX NSCLC, 7.78 µM. Moreover, the TGI in the assay with U251 CNS came out at 11.8 µM; with HOP-62 NSCLC, 5.26 µM; with M14 melanoma, 7.12 µM; in the assay with LOX IMVI melanoma, 3.13 µM; with RPMI-8226 leukemia, 5.18 µM; in the assay on CCRF-CEM leukemia, 4.12 µM. Besides, the TGI in the assay with SK-MEL-5 melanoma was 6.88 µM; with SK-MEL-28 melanoma, 11.3 µM; with SNB-75 CNS, 15.7 µM; in the assay with EKVX NSCLC, 23.6 µM.

Regarding `Oc1c(C(Nc2ccccn2)c2ccccc2)ccc2cccnc12` (centres undefined), the TGI in the assay with U251 CNS was 12.3 µM; in the assay with HOP-62 NSCLC, more than 68.3 µM; in the assay with M14 melanoma, more than 52.6 µM; with LOX IMVI melanoma, 37.9 µM; with RPMI-8226 leukemia it was 29.3 µM; in the assay on CCRF-CEM leukemia, 3.81 µM. Besides, the TGI is 15.5 µM in the assay on SK-MEL-5 melanoma, more than 100 µM in the assay with SK-MEL-28 melanoma, more than 60.9 µM with SNB-75 CNS and 28.6 µM in the assay on EKVX NSCLC.

Take `CCCCCCCCN(CCCCCCCC)CC(O)c1cc(-c2ccccc2)nc2ccc(OC)cc12` (centres undefined): the GI50 in the assay with U251 CNS is 27.8 µM; with HOP-62 NSCLC, 30.4 µM; with M14 melanoma, 20.3 µM; in the assay on LOX IMVI melanoma it was 12.6 µM; in the assay on RPMI-8226 leukemia, 10.3 µM; in the assay on CCRF-CEM leukemia, 26.1 µM. Also, the GI50 is 34.4 µM with SK-MEL-5 melanoma, 62.3 µM with SK-MEL-28 melanoma, more than 100 µM in the assay with SNB-75 CNS and more than 100 µM in the assay on EKVX NSCLC. The TGI in the assay on U251 CNS was 96.2 µM; in the assay with HOP-62 NSCLC it was more than 100 µM; in the assay on M14 melanoma, 68.5 µM; in the assay on LOX IMVI melanoma it was 34.7 µM; in the assay with RPMI-8226 leukemia, 44.3 µM; in the assay with CCRF-CEM leukemia, more than 100 µM. For the same molecule, the TGI in the assay on SK-MEL-5 melanoma, in the assay on SK-MEL-28 melanoma, with SNB-75 CNS and in the assay with EKVX NSCLC was more than 100 µM each time.

For `Oc1c(C(c2ccc(F)cc2)N2CCCCC2)ccc2cncnc12` (centres undefined), the GI50 is 0.325 µM with U251 CNS; 0.513 µM in the assay with HOP-62 NSCLC; 0.746 µM in the assay on M14 melanoma; 0.432 µM with LOX IMVI melanoma; 0.555 µM in the assay on RPMI-8226 leukemia; 0.477 µM in the assay with CCRF-CEM leukemia. Further, the GI50 in the assay with SK-MEL-5 melanoma is 0.529 µM; in the assay on SK-MEL-28 melanoma, 0.71 µM; in the assay on SNB-75 CNS it was 0.246 µM; in the assay on EKVX NSCLC, 0.672 µM. In addition, the TGI in the assay on U251 CNS is more than 100 µM; in the assay on HOP-62 NSCLC, more than 100 µM; in the assay on M14 melanoma it was more than 75.2 µM; in the assay with LOX IMVI melanoma, more than 100 µM; in the assay with RPMI-8226 leukemia, more than 100 µM; with CCRF-CEM leukemia, more than 100 µM. The TGI is 3.63 µM in the assay on SK-MEL-5 melanoma, more than 100 µM with SK-MEL-28 melanoma, 3.95 µM in the assay with SNB-75 CNS and 45.9 µM in the assay with EKVX NSCLC.

As to `COC(=O)C1=C(C)NC(=S)NC1c1ccc(N(CCCl)CCCl)cc1Cl` (centres undefined), the TGI was more than 100 µM in the assay with U251 CNS; more than 100 µM in the assay on HOP-62 NSCLC; more than 87.9 µM in the assay with M14 melanoma; more than 100 µM in the assay on LOX IMVI melanoma; more than 4.64 µM in the assay with RPMI-8226 leukemia; more than 32.7 µM with CCRF-CEM leukemia. The TGI in the assay on SK-MEL-5 melanoma is 20.1 µM; in the assay on SK-MEL-28 melanoma, more than 100 µM; with SNB-75 CNS, more than 100 µM; in the assay with EKVX NSCLC, more than 37.8 µM.

As for `Cc1ccsc1C(NC(=O)c1ccccc1)c1cc(Cl)c2cccnc2c1O` (centres undefined), the GI50 in the assay with U251 CNS is 0.318 µM; with HOP-62 NSCLC, 0.471 µM; with M14 melanoma, 0.892 µM; with LOX IMVI melanoma, 0.504 µM; in the assay on RPMI-8226 leukemia, 0.475 µM; in the assay with CCRF-CEM leukemia it was 0.48 µM. In addition, the GI50 was 0.583 µM in the assay on SK-MEL-5 melanoma, 0.688 µM in the assay on SK-MEL-28 melanoma, 0.32 µM in the assay on SNB-75 CNS and 0.371 µM in the assay with EKVX NSCLC. Moreover, the TGI in the assay on U251 CNS amounted to 10.4 µM; in the assay on HOP-62 NSCLC, 5.68 µM; with M14 melanoma it was 9.43 µM; in the assay with LOX IMVI melanoma, 2.32 µM; in the assay on RPMI-8226 leukemia, 16.3 µM; in the assay on CCRF-CEM leukemia it was 39 µM. Besides, the TGI came out at 5.14 µM in the assay with SK-MEL-5 melanoma, 18.9 µM in the assay with SK-MEL-28 melanoma, 14.9 µM in the assay with SNB-75 CNS and 10.9 µM in the assay with EKVX NSCLC.

Take `Cc1cc(N(CCC#N)S(=O)(=O)c2ccccc2)ccc1C=Nc1ccc(C(=O)O)cc1`: the TGI is 38.2 µM in the assay with U251 CNS; 46 µM in the assay on HOP-62 NSCLC; 21.8 µM in the assay with M14 melanoma; 25.5 µM in the assay on LOX IMVI melanoma; more than 21.2 µM in the assay with RPMI-8226 leukemia; more than 26.5 µM in the assay on CCRF-CEM leukemia. For the same molecule, the TGI in the assay with SK-MEL-5 melanoma amounted to 24.3 µM; with SK-MEL-28 melanoma, 28.3 µM; in the assay on SNB-75 CNS, 29.1 µM; with EKVX NSCLC it was 35.8 µM.

As to `Nc1nc2cc(Cl)ccc2n1N`, the TGI with U251 CNS, in the assay with HOP-62 NSCLC, with M14 melanoma, with LOX IMVI melanoma, in the assay with RPMI-8226 leukemia and with CCRF-CEM leukemia was more than 100 µM each time. Moreover, the TGI with SK-MEL-5 melanoma, in the assay on SK-MEL-28 melanoma, in the assay with SNB-75 CNS and in the assay with EKVX NSCLC was more than 100 µM in each case.

For `NC(=O)NNC/C(Cl)=C(\Cl)C(=O)O`, the TGI with U251 CNS, with HOP-62 NSCLC, in the assay on M14 melanoma, in the assay with LOX IMVI melanoma, with RPMI-8226 leukemia and with CCRF-CEM leukemia was more than 100 µM throughout. The TGI in the assay with SK-MEL-5 melanoma, in the assay with SK-MEL-28 melanoma, in the assay with SNB-75 CNS and with EKVX NSCLC was more than 100 µM in each case.
